Experiment [1] has as its target Epithelial discoidin domain-containing receptor 1 (Homo sapiens) (UniProt Q08345). The experiment in a line: Selectivity interaction (LanthaScreen Eu Kinase Binding Assay) EUB0001632a DDR1. The following applies: at 10 µM.
Experiment [2] deals with T1, TGF-beta receptor type-1 (Homo sapiens) (UniProt P36897).
T1 sequence (whole entry): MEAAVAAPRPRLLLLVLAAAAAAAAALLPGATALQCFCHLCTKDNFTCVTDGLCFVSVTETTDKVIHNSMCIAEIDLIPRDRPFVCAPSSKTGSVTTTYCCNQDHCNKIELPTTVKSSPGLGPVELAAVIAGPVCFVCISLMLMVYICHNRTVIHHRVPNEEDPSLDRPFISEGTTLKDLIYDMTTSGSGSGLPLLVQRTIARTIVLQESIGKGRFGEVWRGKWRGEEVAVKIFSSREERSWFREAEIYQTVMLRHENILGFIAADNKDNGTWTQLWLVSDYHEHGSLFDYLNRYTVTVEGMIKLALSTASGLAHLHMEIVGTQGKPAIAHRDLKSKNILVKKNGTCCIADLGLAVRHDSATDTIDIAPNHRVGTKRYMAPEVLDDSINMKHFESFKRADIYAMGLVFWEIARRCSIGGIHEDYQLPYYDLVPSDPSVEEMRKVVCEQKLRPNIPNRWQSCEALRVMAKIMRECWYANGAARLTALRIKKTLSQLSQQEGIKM
The experiment in a line: Selectivity interaction (Ambit KINOMEscan and KiNATiv profiling in Jurkat cells) EUB0000090b TGFBR1. It counts as cell-based. To be noted: at 1 µM.

The target of experiment [3] is T2, Aurora kinase C (Homo sapiens) (UniProt Q9UQB9).
T2 sequence (whole entry): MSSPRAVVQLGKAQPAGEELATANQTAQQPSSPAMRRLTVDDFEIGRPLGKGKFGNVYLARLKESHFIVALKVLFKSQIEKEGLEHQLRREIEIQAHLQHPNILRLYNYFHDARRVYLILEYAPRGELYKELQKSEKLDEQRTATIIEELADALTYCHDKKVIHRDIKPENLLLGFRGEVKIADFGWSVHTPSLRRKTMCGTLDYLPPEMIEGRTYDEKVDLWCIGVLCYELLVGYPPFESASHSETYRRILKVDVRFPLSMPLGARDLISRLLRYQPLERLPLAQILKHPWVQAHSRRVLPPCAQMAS
The experiment in a line: Selectivity interaction (SelectScreen profiling (Invitrogen)) EUB0000607a AURKC. The following applies: at 2 µM.

Experiment [4] deals with BDNF/NT-3 growth factors receptor (Homo sapiens) (UniProt Q16620). The experiment in a line: Selectivity interaction (KinomeScan (DiscoverX)) EUB0000695a NTRK2. The following applies: at 100 nM.
BDNF/NT-3 growth factors receptor (Homo sapiens), sequence (Q16620 32-822 limits assumed): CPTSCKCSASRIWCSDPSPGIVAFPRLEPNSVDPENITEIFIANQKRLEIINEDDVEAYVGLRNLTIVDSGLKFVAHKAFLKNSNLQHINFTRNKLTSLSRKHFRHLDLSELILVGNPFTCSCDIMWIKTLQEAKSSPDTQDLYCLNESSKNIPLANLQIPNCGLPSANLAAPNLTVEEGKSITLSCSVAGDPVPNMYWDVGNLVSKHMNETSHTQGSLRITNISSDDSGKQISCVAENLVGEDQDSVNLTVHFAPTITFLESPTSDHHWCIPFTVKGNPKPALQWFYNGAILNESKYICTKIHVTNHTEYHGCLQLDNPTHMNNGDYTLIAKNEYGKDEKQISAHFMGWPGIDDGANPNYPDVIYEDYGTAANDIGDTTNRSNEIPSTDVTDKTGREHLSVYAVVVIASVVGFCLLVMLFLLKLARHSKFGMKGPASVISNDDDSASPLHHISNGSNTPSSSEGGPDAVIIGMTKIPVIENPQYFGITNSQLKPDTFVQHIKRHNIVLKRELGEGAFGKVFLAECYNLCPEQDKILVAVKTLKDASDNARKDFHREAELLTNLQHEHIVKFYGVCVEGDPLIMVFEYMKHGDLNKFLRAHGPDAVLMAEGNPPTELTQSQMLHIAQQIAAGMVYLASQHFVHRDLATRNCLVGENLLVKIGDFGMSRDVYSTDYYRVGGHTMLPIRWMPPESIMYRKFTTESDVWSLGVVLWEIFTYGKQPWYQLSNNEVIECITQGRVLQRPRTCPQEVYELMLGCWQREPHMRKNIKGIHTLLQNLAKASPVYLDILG
Experiment [5] has as its target STE20-like serine/threonine-protein kinase (Homo sapiens, UniProt Q9H2G2). The experiment in a line: Selectivity interaction (ProQinase) EUB0000171b SLK.
The target in experiment [6] is Serine/threonine-protein kinase PAK 6 (Homo sapiens) (UniProt Q9NQU5). The experiment in a line: Selectivity interaction (ProQinase) EUB0000171b PAK6. The following applies: at 1 µM.
Serine/threonine-protein kinase PAK 6 (Homo sapiens), sequence (Q9NQU5 whole entry, looked up): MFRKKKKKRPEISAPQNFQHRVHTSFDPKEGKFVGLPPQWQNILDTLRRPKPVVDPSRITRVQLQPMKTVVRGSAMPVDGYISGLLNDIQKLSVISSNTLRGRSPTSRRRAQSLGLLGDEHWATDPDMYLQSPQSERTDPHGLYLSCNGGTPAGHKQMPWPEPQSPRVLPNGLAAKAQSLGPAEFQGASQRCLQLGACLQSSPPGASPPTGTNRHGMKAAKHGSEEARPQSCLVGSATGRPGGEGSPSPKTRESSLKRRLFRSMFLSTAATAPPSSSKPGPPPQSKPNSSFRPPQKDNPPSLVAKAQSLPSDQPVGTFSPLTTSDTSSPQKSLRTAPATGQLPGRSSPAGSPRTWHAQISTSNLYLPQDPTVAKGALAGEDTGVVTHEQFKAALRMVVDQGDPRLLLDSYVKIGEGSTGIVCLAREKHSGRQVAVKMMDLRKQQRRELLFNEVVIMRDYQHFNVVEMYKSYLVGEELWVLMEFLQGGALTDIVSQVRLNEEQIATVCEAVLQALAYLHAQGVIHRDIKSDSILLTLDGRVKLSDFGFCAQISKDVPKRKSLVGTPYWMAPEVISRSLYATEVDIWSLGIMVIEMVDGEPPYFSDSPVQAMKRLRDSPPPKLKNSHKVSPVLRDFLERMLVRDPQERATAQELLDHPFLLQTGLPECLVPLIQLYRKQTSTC
In experiment [7] the target is T3, Serine/threonine-protein kinase Chk1 (Homo sapiens) (UniProt O14757).
T3 sequence (whole entry): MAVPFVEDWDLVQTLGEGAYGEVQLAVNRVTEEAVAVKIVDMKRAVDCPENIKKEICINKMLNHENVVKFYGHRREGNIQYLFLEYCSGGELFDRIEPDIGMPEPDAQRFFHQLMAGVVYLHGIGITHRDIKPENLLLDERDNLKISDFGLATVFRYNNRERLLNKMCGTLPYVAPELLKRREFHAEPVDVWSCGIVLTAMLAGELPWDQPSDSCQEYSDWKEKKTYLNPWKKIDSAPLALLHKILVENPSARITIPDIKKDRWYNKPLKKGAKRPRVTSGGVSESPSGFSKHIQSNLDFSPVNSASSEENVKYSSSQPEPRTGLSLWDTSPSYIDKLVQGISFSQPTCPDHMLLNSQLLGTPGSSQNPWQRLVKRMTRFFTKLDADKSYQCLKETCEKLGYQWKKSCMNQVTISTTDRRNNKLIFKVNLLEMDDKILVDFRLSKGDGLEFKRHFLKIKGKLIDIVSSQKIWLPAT
The experiment in a line: Selectivity interaction (ProQinase) EUB0000171b CHEK1.

For experiment [8], the target named is T4, Serine/threonine-protein kinase TNNI3K (Homo sapiens) (UniProt Q59H18).
T4 sequence (whole entry): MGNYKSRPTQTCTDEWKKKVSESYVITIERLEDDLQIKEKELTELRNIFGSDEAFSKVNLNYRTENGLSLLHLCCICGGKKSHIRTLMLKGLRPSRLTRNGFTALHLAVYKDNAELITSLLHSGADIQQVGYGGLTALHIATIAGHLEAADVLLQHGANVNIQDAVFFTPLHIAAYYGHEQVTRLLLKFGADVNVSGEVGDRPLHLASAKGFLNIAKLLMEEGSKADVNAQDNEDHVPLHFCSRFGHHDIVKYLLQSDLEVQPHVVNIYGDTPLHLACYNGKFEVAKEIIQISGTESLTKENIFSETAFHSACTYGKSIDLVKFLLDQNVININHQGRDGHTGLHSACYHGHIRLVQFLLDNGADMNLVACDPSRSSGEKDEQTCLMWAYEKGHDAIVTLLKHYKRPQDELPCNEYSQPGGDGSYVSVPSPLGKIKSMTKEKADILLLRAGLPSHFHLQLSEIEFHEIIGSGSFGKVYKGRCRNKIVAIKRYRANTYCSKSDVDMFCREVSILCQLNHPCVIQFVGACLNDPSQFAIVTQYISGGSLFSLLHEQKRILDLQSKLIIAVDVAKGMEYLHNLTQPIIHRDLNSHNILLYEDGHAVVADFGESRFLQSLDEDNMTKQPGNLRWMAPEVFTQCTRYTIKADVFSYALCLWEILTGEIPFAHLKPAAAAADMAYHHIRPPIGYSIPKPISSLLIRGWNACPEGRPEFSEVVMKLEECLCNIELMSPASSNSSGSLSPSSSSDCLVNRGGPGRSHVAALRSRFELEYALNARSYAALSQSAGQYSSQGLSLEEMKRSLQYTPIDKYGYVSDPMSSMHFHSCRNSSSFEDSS
Kind of experiment: Selectivity interaction (KinomeScan (DiscoverX)) EUB0000092b TNNI3K. The following applies: at 10 µM.

Experiment [9] deals with Fibroblast growth factor receptor 3 (Homo sapiens, UniProt P22607). Kind of experiment: Selectivity interaction (Upstate Kinase Profiler service (Millipore)) EUB0000056c FGFR3. The following applies: at 1 µM.
Fibroblast growth factor receptor 3, sequence (P22607 23-806 limits assumed): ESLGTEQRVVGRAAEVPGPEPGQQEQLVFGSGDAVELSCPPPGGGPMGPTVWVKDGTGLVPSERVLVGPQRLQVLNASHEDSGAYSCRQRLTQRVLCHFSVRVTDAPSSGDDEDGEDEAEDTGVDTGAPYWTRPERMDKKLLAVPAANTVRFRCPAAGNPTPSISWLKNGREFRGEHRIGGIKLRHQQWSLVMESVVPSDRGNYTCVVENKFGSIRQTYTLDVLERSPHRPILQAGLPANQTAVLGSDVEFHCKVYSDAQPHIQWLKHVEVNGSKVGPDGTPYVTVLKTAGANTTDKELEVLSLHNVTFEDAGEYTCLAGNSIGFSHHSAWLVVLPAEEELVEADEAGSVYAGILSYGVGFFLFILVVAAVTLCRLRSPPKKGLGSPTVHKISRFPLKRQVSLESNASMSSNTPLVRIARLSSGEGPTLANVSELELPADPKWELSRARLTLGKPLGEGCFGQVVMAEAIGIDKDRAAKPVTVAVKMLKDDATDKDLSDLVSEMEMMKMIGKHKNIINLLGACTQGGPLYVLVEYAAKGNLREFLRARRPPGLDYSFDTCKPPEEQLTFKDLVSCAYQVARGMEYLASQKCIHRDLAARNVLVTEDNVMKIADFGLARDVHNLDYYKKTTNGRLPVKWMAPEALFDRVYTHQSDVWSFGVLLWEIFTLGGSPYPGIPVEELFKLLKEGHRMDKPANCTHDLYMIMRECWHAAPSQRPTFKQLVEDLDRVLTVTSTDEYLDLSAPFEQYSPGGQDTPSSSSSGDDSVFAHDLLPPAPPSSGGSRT

Structures are written as SMILES.

Consider seven compounds from ChEMBL document CHEMBL5465560, “Selectivity Literature for EUbOPEN Chemogenomic Library” (2024).

STE20-like serine/threonine-protein kinase, sequence (Q9H2G2 whole entry, looked up): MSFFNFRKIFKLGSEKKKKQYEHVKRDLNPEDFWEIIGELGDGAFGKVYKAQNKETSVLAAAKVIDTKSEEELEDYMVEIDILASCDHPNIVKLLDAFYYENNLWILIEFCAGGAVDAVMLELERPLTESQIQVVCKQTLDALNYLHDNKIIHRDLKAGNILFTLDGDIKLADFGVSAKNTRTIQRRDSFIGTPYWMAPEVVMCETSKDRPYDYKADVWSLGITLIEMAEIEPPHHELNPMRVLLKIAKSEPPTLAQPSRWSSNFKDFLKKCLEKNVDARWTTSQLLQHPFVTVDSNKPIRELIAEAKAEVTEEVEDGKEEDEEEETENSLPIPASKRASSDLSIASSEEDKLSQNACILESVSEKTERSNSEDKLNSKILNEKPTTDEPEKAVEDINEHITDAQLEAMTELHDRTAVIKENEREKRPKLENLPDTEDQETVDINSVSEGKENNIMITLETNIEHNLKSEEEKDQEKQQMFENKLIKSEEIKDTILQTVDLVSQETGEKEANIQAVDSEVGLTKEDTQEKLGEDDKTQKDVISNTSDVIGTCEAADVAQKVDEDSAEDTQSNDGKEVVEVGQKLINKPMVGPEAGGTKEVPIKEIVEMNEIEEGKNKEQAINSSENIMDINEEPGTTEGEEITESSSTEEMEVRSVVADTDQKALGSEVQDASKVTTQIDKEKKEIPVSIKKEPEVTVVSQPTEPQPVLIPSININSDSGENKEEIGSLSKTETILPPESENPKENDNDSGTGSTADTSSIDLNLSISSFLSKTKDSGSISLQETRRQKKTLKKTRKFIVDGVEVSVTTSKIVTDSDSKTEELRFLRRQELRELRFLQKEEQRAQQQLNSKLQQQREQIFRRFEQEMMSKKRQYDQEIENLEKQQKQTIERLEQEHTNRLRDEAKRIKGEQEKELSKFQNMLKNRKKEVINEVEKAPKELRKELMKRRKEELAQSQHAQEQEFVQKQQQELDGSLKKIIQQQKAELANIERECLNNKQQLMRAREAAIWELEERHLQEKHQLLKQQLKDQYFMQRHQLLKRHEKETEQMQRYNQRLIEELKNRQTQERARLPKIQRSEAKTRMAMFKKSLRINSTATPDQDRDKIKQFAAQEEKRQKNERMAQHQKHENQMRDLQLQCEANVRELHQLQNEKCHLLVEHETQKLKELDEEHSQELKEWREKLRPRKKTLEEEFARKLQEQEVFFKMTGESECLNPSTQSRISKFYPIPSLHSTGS
Epithelial discoidin domain-containing receptor 1 (Homo sapiens), sequence (Q08345 whole entry, the tested form may be a part): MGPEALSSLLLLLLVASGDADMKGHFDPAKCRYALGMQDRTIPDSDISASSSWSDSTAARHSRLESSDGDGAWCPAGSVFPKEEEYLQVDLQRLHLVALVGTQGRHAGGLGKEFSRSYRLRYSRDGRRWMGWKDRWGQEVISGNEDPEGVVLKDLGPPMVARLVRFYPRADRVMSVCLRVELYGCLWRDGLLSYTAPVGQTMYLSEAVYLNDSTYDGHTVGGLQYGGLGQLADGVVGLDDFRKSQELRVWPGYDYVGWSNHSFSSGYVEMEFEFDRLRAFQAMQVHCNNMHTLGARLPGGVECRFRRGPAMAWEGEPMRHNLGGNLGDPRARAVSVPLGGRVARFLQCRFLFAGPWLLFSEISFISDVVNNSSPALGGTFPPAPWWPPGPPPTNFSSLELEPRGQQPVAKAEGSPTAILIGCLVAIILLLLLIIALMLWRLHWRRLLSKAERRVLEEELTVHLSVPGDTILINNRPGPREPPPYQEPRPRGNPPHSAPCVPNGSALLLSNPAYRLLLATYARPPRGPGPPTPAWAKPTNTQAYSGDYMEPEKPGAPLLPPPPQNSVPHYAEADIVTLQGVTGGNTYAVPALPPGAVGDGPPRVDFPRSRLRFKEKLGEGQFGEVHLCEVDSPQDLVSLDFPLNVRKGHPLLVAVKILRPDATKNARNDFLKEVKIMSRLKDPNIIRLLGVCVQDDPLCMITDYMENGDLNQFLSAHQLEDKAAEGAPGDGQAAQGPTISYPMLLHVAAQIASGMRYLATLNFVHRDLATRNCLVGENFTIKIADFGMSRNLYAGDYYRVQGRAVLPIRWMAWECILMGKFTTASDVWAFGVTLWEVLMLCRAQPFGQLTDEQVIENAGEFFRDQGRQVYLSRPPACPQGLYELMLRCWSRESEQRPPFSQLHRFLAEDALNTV

`Cn1cc(-n2cnc3c(NCc4nc5cc(Cl)c(Cl)cc5[nH]4)nc(N4CCOCC4)nc32)cn1`: the % of inhibition in experiment [1] stood at 0.322%. For `CN(C)C/C=C/C(=O)Nc1ccc(C(=O)N2CCCC(Nc3ncc(Cl)c(-c4c[nH]c5ccccc45)n3)C2)cc1` (stereo unspecified), the % of control in [2] stood at 87%.

`CNC(=O)Nc1ccc(-c2nc(N3CC4CCC(C3)O4)c3cnn(C4CCC5(CC4)OCCO5)c3n2)cc1` yielded a % of inhibition in experiment [3] of 4%. For the compound `Cc1cc(F)c(C(=O)Nc2cccc(-c3nncn3C(C)C)n2)cc1-n1cnc(C2CC2)c1`, the % of control in experiment [4] was 65%. Take `C=CC(=O)Nc1cccc(C(=O)Nc2ccc(Nc3cc(-c4[nH]c(SC)nc4C)ccn3)cc2)c1`: the % of control in experiment [5] (at 1 µM) came out at 102%; in experiment [5] (at 5 µM), 76%; in [6], 90%; in experiment [7] (at 1 µM), 94%; in [7] (at 5 µM) it was 100%. For `CCC(=O)N1CCN(c2ccc(-n3c(=O)ccc4cnc5ccc(-c6cnc7ccccc7c6)cc5c43)cc2C(F)(F)F)CC1`, the % of control in experiment [8] was determined as 66%.

The compound `Cc1ccc(-c2ccc3c(ccc4sc5c(c43)NC[C@@H](C)NC5=O)n2)cn1` yielded a % of inhibition in [9] of 16%.
